Test results taken from ChEMBL document CHEMBL3639255, “Bivalent diazo bicyclic Smac mimetics and the uses thereof” (2014).

Columns and labels:
[1] = biological target: Baculoviral IAP repeat-containing protein 2 (Homo sapiens, UniProt Q13490); assay: (§1) Fluorescence Polarization-Based Assays: An in vitro fluorescence polarization (FP) based binding assay was used to test the binding ability of the compounds of the present invention to certain IAP proteins (Nikolovska-Coleska et al., Anal. Biochem. 332:261-73 (2004)). he FP-based assay for XIAP BIR3 protein was described in detail previously (Nikolovska-Coleska et al., Anal. Biochem. 332:261-73 (2004)). Briefly, 5-carboxyfluorescein was coupled to the lysine side chain of a mutated Smac peptide with the sequence (AbuRPFK-Fam) and this fluorescently tagged peptide (named SM5F) was used as the fluorescent tracer in FP-based binding assay to XIAP BIR3.
Sequence of Baculoviral IAP repeat-containing protein 2 (Q13490 whole entry, looked up, stated change not applied): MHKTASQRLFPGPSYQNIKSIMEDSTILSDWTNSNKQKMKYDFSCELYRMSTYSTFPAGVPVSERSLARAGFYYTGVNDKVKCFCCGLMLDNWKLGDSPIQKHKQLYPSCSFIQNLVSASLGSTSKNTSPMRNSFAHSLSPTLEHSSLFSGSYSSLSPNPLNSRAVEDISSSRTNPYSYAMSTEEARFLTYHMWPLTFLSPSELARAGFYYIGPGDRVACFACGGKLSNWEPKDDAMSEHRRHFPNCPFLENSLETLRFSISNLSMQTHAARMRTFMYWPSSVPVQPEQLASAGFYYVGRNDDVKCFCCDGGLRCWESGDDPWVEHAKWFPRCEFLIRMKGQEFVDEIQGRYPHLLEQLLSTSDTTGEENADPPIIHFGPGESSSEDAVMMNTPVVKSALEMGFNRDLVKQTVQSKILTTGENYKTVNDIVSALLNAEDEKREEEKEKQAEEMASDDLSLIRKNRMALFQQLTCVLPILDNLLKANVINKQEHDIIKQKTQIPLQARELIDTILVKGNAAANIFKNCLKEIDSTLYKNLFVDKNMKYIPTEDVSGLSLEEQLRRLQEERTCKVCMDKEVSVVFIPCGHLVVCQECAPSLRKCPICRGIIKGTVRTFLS

[2] = biological target: Baculoviral IAP repeat-containing protein 3 (Homo sapiens, UniProt Q13489); assay: as §1
Sequence of Baculoviral IAP repeat-containing protein 3 (Q13489 whole entry, looked up, change not shown): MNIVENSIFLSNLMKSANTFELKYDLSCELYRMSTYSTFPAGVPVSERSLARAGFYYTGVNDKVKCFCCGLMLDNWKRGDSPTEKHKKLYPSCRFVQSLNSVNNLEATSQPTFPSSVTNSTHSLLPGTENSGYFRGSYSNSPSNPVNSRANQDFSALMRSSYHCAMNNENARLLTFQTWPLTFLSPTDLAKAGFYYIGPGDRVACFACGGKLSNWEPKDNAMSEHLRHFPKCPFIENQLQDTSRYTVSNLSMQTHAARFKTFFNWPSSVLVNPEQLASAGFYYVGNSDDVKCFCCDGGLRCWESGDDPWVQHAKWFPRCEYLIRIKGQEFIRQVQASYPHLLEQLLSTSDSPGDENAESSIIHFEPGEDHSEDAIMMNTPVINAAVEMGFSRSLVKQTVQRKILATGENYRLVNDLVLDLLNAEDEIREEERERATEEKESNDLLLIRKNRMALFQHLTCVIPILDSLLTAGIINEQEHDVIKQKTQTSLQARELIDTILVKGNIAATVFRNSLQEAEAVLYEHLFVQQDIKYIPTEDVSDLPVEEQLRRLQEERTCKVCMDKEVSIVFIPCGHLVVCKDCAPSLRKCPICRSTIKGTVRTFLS

Question: Which IC50 [1] does the source give for C=CC(C=C)c1cccc2[nH]c([C@@H]3CC[C@@H]4CCN(C(=O)CCCCCCCCCCC(=O)N5CC[C@H]6CC[C@@H](c7nc8c(-c9ccccc9)cccc8[nH]7)N6C(=O)[C@@H](NC(=O)[C@H](C)NC)C5)C[C@H](NC(=O)[C@H](C)NC)C(=O)N43)nc12 here?
Answer: Its IC50 is < 0.05 µM.

Question: CN[C@@H](C)C(=O)N[C@H]1CN(C(=O)CCCCCCCCCCC(=O)N2CC[C@H]3CC[C@@H](c4nc5c(-c6ccccc6)cccc5[nH]4)N3C(=O)[C@@H](NC(=O)[C@H](C)NC)C2)CC[C@H]2CC[C@@H](c3nc4c(-c5ccccc5)cccc4[nH]3)N2C1=O was tested. Which IC50 [2] did it give?
Answer: The IC50 was < 0.05 µM.
